Test results published in ChEMBL document CHEMBL5724914, “Linking interpersonal differences in gut microbiota composition and drug biotransformation activity” (2024).

Experiments:
[1] = human gut metagenome, 24 h, 2 µM
[2] = (§1) The drug is tested on WLS-310 corresponding to human gut metagenome with ENA study accession number: PRJEB37062 and ENA sample accession number: ERS12561785 for biotransformation under anaerobic condition. The drug concentrations were measured over 9 timepoints collected between 0 and 24 hours of incubation by liquid-chromatography-coupled mass spectrometry (LC–MS); details: 2 µM
[3] = as §1, with “Z-006” for “WLS-310”, “mouse” for “human”, “ERS12561806” for “ERS12561785”; details: 2 µM
[4] = as §1, with “Z-010” for “WLS-310”, “to” for “to human gut”, “ERS12561810” for “ERS12561785”; details: 2 µM
[5] = human gut metagenome, 24 h, 2 µM; remark: listed apart in the source
[6] = as §1, with “WLS-086” for “WLS-310”, “ERS12561752” for “ERS12561785”; details: 2 µM
[7] = human gut metagenome, 24 h, 2 µM; remark: listed apart in the source
[8] = as §1, with “Z-014” for “WLS-310”, “rat” for “human”, “ERS12561814” for “ERS12561785”; details: 2 µM
[9] = human gut metagenome, 24 h, 2 µM; remark: listed apart in the source
[10] = human gut metagenome, 24 h, 2 µM; remark: listed apart in the source
[11] = as §1, with “WLS-370” for “WLS-310”, “ERS12561793” for “ERS12561785”; details: 2 µM
[12] = as §1, with “Z-018” for “WLS-310”, “pig” for “human”, “ERS12561817” for “ERS12561785”; details: 2 µM
[13] = as §1, with “Z-027” for “WLS-310”, “to” for “to human gut”, “ERS12561826” for “ERS12561785”; details: 2 µM
[14] = as §1, with “WLS-007” for “WLS-310”, “ERS12561742” for “ERS12561785”; details: 2 µM
[15] = as §1, with “Z-005” for “WLS-310”, “to” for “to human gut”, “ERS12561805” for “ERS12561785”; details: 2 µM
[16] = human gut metagenome, 24 h, 2 µM; remark: listed apart in the source
[17] = as §1, with “Z-019” for “WLS-310”, “rat” for “human”, “ERS12561818” for “ERS12561785”; details: 2 µM
[18] = as §1, with “WLS-010” for “WLS-310”, “ERS12561743” for “ERS12561785”; details: 2 µM
[19] = human gut metagenome, 24 h, 2 µM; remark: listed apart in the source
[20] = as §1, with “Z-004” for “WLS-310”, “to” for “to human gut”, “ERS12561804” for “ERS12561785”; details: 2 µM
Also: call rule not given here.

SMILES | Bacterial Biotransformation [1] | Bacterial Biotransformation [2] | Bacterial Biotransformation [3] | Bacterial Biotransformation [4] | Bacterial Biotransformation [5] | Bacterial Biotransformation [6] | Bacterial Biotransformation [7] | Bacterial Biotransformation [8] | Bacterial Biotransformation [9] | Bacterial Biotransformation [10] | Bacterial Biotransformation [11] | Bacterial Biotransformation [12] | Bacterial Biotransformation [13] | Bacterial Biotransformation [14] | Bacterial Biotransformation [15] | Bacterial Biotransformation [16] | Bacterial Biotransformation [17] | Bacterial Biotransformation [18] | Bacterial Biotransformation [19] | Bacterial Biotransformation [20]
C[C@]12C=CC(=O)C=C1CC[C@@H]1[C@@H]2C(=O)C[C@@]2(C)[C@H]1CC[C@]2(O)C(=O)CO [PREDNISONE] | Compound metabolized | Compound metabolized | Compound metabolized | Compound metabolized | Compound metabolized | Compound metabolized | Compound metabolized | Compound NOT metabolized | Compound metabolized | Compound NOT metabolized | Compound metabolized | Compound metabolized | Compound NOT metabolized | Compound metabolized | Compound NOT metabolized | Compound metabolized | Compound NOT metabolized | Compound metabolized | Compound metabolized | Compound metabolized
CN(CCOc1ccc(CC2SC(=O)NC2=O)cc1)c1ccccn1.O=C(O)/C=C\C(=O)O (stereo not given) [ROSIGLITAZONE MALEATE] | Compound NOT metabolized | Compound metabolized | Compound NOT metabolized | Compound NOT metabolized | Compound metabolized | Compound NOT metabolized | Compound NOT metabolized | Compound NOT metabolized | Compound metabolized | Compound NOT metabolized | Compound metabolized | Compound NOT metabolized | Compound NOT metabolized | Compound metabolized | Compound NOT metabolized | Compound metabolized | Compound NOT metabolized | Compound NOT metabolized | Compound NOT metabolized | Compound NOT metabolized
CC(C)c1nc(N(C)S(C)(=O)=O)nc(-c2ccc(F)cc2)c1/C=C/[C@@H](O)C[C@@H](O)CC(=O)[O-].CC(C)c1nc(N(C)S(C)(=O)=O)nc(-c2ccc(F)cc2)c1/C=C/[C@@H](O)C[C@@H](O)CC(=O)[O-].[Ca+2] [ROSUVASTATIN CALCIUM] | Compound metabolized | Compound metabolized | Compound NOT metabolized | Compound NOT metabolized | Compound NOT metabolized | Compound metabolized | Compound NOT metabolized | Compound NOT metabolized | Compound metabolized | Compound NOT metabolized | Compound metabolized | Compound NOT metabolized | Compound NOT metabolized | Compound metabolized | Compound NOT metabolized | Compound metabolized | Compound NOT metabolized | Compound metabolized | Compound NOT metabolized | Compound NOT metabolized
C=CC[C@@H]1/C=C(\C)C[C@H](C)C[C@H](OC)[C@H]2O[C@@](O)(C(=O)C(=O)N3CCCC[C@H]3C(=O)O[C@H](/C(C)=C/[C@@H]3CC[C@@H](O)[C@H](OC)C3)[C@H](C)[C@@H](O)CC1=O)[C@H](C)C[C@@H]2OC.O [TACROLIMUS] | Compound metabolized | Compound metabolized | Compound NOT metabolized | Compound NOT metabolized | Compound metabolized | Compound metabolized | Compound NOT metabolized | Compound NOT metabolized | Compound metabolized | Compound metabolized | Compound metabolized | Compound NOT metabolized | Compound NOT metabolized | Compound NOT metabolized | Compound NOT metabolized | Compound metabolized | Compound NOT metabolized | Compound metabolized | Compound metabolized | Compound NOT metabolized
CCS(=O)(=O)CCn1c([N+](=O)[O-])cnc1C [TINIDAZOLE] | Compound metabolized | Compound metabolized | Compound metabolized | Compound metabolized | Compound NOT metabolized | Compound metabolized | Compound metabolized | Compound metabolized | Compound metabolized | Compound metabolized | Compound metabolized | Compound metabolized | Compound metabolized | Compound metabolized | Compound metabolized | Compound metabolized | Compound metabolized | Compound metabolized | Compound metabolized | Compound metabolized
COc1ccc(CN2CCNCC2)c(OC)c1OC.Cl.Cl [TRIMETAZIDINE DIHYDROCHLORIDE] | Compound NOT metabolized | Compound NOT metabolized | Compound NOT metabolized | Compound NOT metabolized | Compound NOT metabolized | Compound NOT metabolized | Compound NOT metabolized | Compound NOT metabolized | Compound NOT metabolized | Compound NOT metabolized | Compound NOT metabolized | Compound NOT metabolized | Compound NOT metabolized | Compound NOT metabolized | Compound NOT metabolized | Compound NOT metabolized | Compound NOT metabolized | Compound NOT metabolized | Compound NOT metabolized | Compound NOT metabolized
CN1[C@@H]2CC[C@H]1C[C@@H](OC(=O)c1c[nH]c3ccccc13)C2 [TROPISETRON] | Compound NOT metabolized | Compound NOT metabolized | Compound NOT metabolized | Compound NOT metabolized | Compound NOT metabolized | Compound metabolized | Compound NOT metabolized | Compound NOT metabolized | Compound NOT metabolized | Compound NOT metabolized | Compound NOT metabolized | Compound NOT metabolized | Compound NOT metabolized | Compound NOT metabolized | Compound NOT metabolized | Compound NOT metabolized | Compound NOT metabolized | Compound NOT metabolized | Compound NOT metabolized | Compound NOT metabolized
